Measurements taken from PMC2872594 (Clinical Medicine. Oncology, 2009).
Read-outs that look alike come from different tables or passages of the source.

Experiments:
[1] = test system: reduced folate carrier (RFC); conditions: cited from earlier work
[2] = test system: A2780/AD cells; test: In vitro cytotoxicity (WSK-8) assay; assay type: cell-based
Procedure: In vitro cytotoxicity (WSK-8) assays
The proliferation of exponential phase cultures of A2780/AD cells was assessed by colorimetric assay (WSK-8). In brief, cells were plated onto a 96 well microtiter plates at 5,000 cells per well. After a 24 hour incubation period to facilitate adherence, the RPMI media was removed and replaced with 100 or 200 μL of fresh media containing the different concentrations of drug. The cells were then incubated for 1 or 3 days at 37 °C at 95% humidity and 5% CO2. The media was then removed, and replaced with 100 μL fresh media containing 10% WSK-8 dye. The plates were incubated for 1.5 hours and subsequently measured at 450 nm with a 96-well plate reader. A non-linear curve fitted to the concentrations tested was used and the data plotted using Origin software. Each concentration was run in triplicate, and drug was tested 3 times.

[3] = biological target: T1, dihydrofolate reductase (DHFR) (Homo sapiens, UniProt P00374); test: In vitro, cell free DHFR inhibition assay; assay type: biochemical; conditions: cell free colorimetric assay, absorbance over 2.5 minutes
T1 construct: purchased Sigma Aldrich
T1 sequence (P00374 1-187): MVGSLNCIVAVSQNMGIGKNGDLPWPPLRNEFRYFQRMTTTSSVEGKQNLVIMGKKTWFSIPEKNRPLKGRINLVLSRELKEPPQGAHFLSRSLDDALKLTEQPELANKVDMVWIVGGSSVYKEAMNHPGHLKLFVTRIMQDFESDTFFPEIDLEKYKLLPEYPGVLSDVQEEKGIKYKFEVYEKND
Procedure: In vitro, cell free DHFR inhibition assay
The DHFR calorimetric assay was purchased from Sigma Aldrich, and was performed according to instructions. Briefly, DHFR was mixed with inhibitor and NADPH.
The percent of control was plotted, and a fit using a power regression line used.

[4] = Stability study in PBS buffer (HPLC); assay type: physicochemical; conditions: phosphate buffered saline pH 7.4, 37 °C
Procedure: To explain the in vitro results, the stability of the compounds was examined. (3) was dissolved in phosphate buffered saline at a pH of 7.4, and incubated at 37 °C. Time points were taken at 24 and 72 hours. […] While not completely stable over the time tested, the stability of the carbamate linkage could be preventing the nucleoside from being released in the cell over the earlier time points. This is consistent with previous nucleoside conjugate work reported and the observation that (2) and (3) have a greater toxicity at 72 hours than the carrier system (1). The delay in the release could explain the discrepancies between the conjugated and the unconjugated systems.
(3) was dissolved in PBS buffer 1 at pH 7.4 in a concentration of [l mM]. The solution was incubated at 37 °C for 24 and 72 hours. Samples from the solution were examined using the HPLC Eclipse XDB C18 analytical column (4.6 × […]; Agilent Technologies). The method conditions were the same as the purification with a flow rate of 0.7 ml/min.

[5] = test system: folate receptor (FR); conditions: cited from earlier work
[6] = A2780/AD ovarian cancer cell line, 24 hours incubation, folate deficient media, read-out: In vitro IC50, 24 hours
[7] = A2780/AD ovarian cancer cell line, 72 hours incubation, folate deficient media, read-out: In vitro IC50, 72 hours
[8] = A2780AD, 24 h, read-out: In vitro IC50, 24 hours
[9] = A2780AD, 72 h, read-out: In vitro IC50, 72 hours

Molecule	IC50 [2, 6] [µM]	IC50 [2, 7] [µM]	IC50 [3] [µM]	other results
Nc1nc(=O)c2nc(CNc3ccc(C(=O)N[C@@H](CCC(=O)O)C(=O)O)cc3)cnc2[nH]1 [Folate, Folic acid]				Km [1]: 200 to 400 µM
γ-MTX-PEG-IUdR [Compound 3]	> 1000	211 ± 100	394	Stability, free nucleoside after 24 hours ([4]; 24 hours): no sign of free nucleoside; Stability, free nucleoside after 72 hours ([4]; 72 hours): partial decomposition
γ-MTX-PEG-ddC [Compound 4]	> 1000	960 ± 80	178	
Cc1cn([C@H]2C[C@H](N=[N+]=[N-])[C@@H](CO)O2)c(=O)[nH]c1=O [AZT, 3’-Azido-3’-deoxythymidine, reference compound]				IC50 [2, 8]: > 10000 µM; IC50 [2, 9]: 8000 ± 1000 µM
γ-MTX-PEG-NH2 [Compound 1]	> 1000	700 ± 100	200	
γ-MTX-PEG-AZT [Compound 2]	> 1000	430 ± 30	152	
CN(Cc1cnc2nc(N)nc(N)c2n1)c1ccc(C(=O)N[C@@H](CCC(=O)O)C(=O)O)cc1 [MTX, Methotrexate]				IC50 [2, 8]: > 10000 µM; IC50 [2, 9]: 7000 ± 900 µM; Km [1]: 5 to 10 µM; Greater affinity for the RFC over folate ([1]; relative to folate): 100 times; Lower affinity of FR for MTX over folate ([5]; relative to folate): approximately 100 fold; Less affinity for the FR than oxidized folate ([5]; relative to oxidized folate): 100 fold
